Experimental data: patent US6903108B2, “Fungicidal mixtures based on amide compounds and pyridine derivatives” (BASF Aktiengesellschaft, priority 1997, dated 2005)
Where “and” joins values, the source holds several entries; their conditions need not be identical. Equal values may be shown once.

Legend:
[1] = tested on: Botrytis cinerea; assay: Activity against Botrytis cinerea on bell peppers, green fruit disks (Use Example 2); type: in vivo
[2] = tested on: Botrytis cinerea; assay: Activity against Botrytis cinerea on bell pepper leaves (Use Example 1); conditions: in vivo

## O=C(Nc1ccccc1-c1ccc(F)cc1)c1cccnc1Cl [Compound I.1]
[1]; in vivo
  Efficacy in % of the untreated control: 0%

## CN(C)S(=O)(=O)N(SC(F)(Cl)Cl)c1ccccc1 [Compound IXa, dichlofluanid]
[2]
  Efficacy in % of the untreated control: 0%

## O=C1c2ccccc2C(=O)N1SC(Cl)(Cl)Cl [Compound VII, folpet]
[2]
  Efficacy in % of the untreated control: 0%
[1]; in vivo
  Efficacy in % of the untreated control: 0%

## O=C(Nc1ccccc1-c1ccc(Cl)cc1)c1cccnc1Cl [Compound I.2]
[2]
  Efficacy in % of the untreated control: 67% and 44%

## N#Cc1c[nH]cc1-c1cccc2c1OC(F)(F)O2 [Compound IV, fludioxinil]
[1]; in vivo
  Efficacy in % of the untreated control: 0%

## O=[N+]([O-])c1cc(C(F)(F)F)c(Cl)c([N+](=O)[O-])c1Nc1ncc(C(F)(F)F)cc1Cl [Compound VIII, fluazinam]
[1]; 16 ppm active ingredient in the spray liquor, green bell pepper fruit disks, 4 days at 18° C.
  Efficacy in % of the untreated control: 0%
[1]; 31 ppm active ingredient in the spray liquor, green bell pepper fruit disks, 4 days at 18° C.
  Efficacy in % of the untreated control: 0%
